Experimental data as given in ChEMBL document CHEMBL1150867, “New sesquiterpene hydroquinones from a Taiwanese marine sponge, Hippospongia metachromia” (J Nat Prod, 2001).
Converted amounts (≈) assume the structure as drawn.

Experiments:
COLO 205 = assay: Cytotoxicity against human COLO205 cells by methylene blue dye assay
[1] = Cytotoxicity against human KB16 cells by methylene blue dye assay

SMILES | IC50 (COLO 205) | IC50 [1]
C=C1[C@H](C)CCC[C@]1(C)CC[C@@]1(C)C=Cc2c(OC(C)=O)c(OC)cc(OC)c2O1 [METACHROMIN B MONO METHYLATE] | 0.53 µg/mL (≈ 1.28 µM) | 1.32 µg/mL (≈ 3.18 µM)
C=C1[C@H](C)CCC[C@]1(C)CC[C@@]1(C)C=CC2=C(O1)C(=O)C=C(OC)C2=O [METACHROMIN E] | > 10 µg/mL | > 10 µg/mL
C=C1[C@H](C)CCC[C@]1(C)CC/C(C)=C/CC1=C(O)C(=O)C=C(OC)C1=O [METACHROMIN A] | 0.1 µg/mL (≈ 0.279 µM) | 1.8 µg/mL (≈ 5.02 µM)
C=C1[C@H](C)CCC[C@]1(C)CC[C@@]1(C)C=Cc2c(OC(C)=O)c(OC)cc(OC(C)=O)c2O1 [HIPPOCHROMIN B DIACETATE] | > 10 µg/mL | > 10 µg/mL
C=C1[C@H](C)CCC[C@]1(C)CC/C(C)=C/CC1=C(OC)C(=O)C=C(OC)C1=O [METACHROMIN A MONOMETHYLATE] | > 10 µg/mL | > 10 µg/mL
C=C1[C@H](C)CCC[C@]1(C)CC[C@@]1(C)C=Cc2c(O)c(OC)cc(OC)c2O1 [METACHROMIN B] | 0.26 µg/mL (≈ 0.698 µM) | 0.68 µg/mL (≈ 1.83 µM)
C=C1[C@H](C)CCC[C@]1(C)CC[C@@]1(C)C=Cc2c(OC(C)=O)c(OC(C)=O)cc(OC)c2O1 [HIPPOCHROMIN A DIACETATE] | 0.22 µg/mL | 3.06 µg/mL
